This is an account of results in ChEMBL document CHEMBL1132232, “7alpha-Iodo and 7alpha-fluoro steroids as androgen receptor-mediated imaging agents” (J Med Chem, 1999).

This assay addresses T1, Androgen receptor (Homo sapiens) (UniProt P10275).
T1 sequence (whole entry): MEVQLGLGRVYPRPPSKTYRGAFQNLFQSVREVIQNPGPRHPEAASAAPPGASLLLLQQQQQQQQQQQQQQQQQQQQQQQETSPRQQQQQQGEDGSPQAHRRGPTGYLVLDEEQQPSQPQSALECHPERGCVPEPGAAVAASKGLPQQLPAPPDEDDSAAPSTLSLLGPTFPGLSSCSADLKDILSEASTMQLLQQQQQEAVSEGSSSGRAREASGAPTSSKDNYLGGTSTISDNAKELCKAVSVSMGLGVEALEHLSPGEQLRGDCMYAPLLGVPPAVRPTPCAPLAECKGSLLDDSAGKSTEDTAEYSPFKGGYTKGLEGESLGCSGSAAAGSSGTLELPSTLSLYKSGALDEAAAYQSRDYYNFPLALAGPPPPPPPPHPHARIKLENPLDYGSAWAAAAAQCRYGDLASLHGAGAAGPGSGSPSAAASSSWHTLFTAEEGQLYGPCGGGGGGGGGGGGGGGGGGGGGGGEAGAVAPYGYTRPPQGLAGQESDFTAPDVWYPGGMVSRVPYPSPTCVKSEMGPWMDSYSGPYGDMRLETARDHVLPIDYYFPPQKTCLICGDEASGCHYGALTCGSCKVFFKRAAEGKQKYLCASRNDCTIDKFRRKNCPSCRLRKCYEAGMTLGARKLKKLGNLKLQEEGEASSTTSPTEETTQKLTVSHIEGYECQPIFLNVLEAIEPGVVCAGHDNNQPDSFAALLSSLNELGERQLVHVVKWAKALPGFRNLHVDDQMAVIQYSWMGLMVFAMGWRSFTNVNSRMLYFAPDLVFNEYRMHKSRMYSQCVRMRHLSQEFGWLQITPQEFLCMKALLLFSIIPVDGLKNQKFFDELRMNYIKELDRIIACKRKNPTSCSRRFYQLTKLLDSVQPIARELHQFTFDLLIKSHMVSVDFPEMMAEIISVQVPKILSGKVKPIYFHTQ
The conditions noted are these: CV-1.

Description: Relative stimulatory activity compared to 5-alpha-DHT in CV-1 cells expressing androgen receptor

For the compound `CC12CC[C@@H]3C4CCC(=O)CC4C[C@@H](F)[C@H]3[C@@H]1CC[C@]2(C)O` (some centres not stated), the RSA is 16. Regarding `CC12CC[C@H]3[C@@H]([C@H](F)CC4CC(=O)CCC43C)[C@@H]1CCC2O` (some centres not stated), the RSA turned out to be 60.
